Laboratory results from paper PMC5218480 (PLoS ONE, 2017).

System: MV-4-11 cells
Test: Gene expression microarray analysis (Affymetrix PrimeView) and GSEA
Assay type: cell-based, human
Design: RFU PODN (11730768_x_at) / Fold change /veh PODN (11730768_x_at) / RFU LINC00158 (11744669_a_at) / Fold change /veh LINC00158 (11744669_a_at) / RFU DUSP10 (11751237_a_at) / Fold change /veh DUSP10 (11751237_a_at) / RFU ID3 (11757404_x_at) / Fold change /veh ID3 (11757404_x_at) / RFU PLEKHG5 (11737974_s_at) / Fold change /veh PLEKHG5 (11737974_s_at) / RFU LRRC4B (11730491_at) / Fold change /veh LRRC4B (11730491_at) / RFU GIMAP4 (11747438_a_at) / Fold change /veh GIMAP4 (11747438_a_at) / RFU KRT8 (11758183_x_at) / Fold change /veh KRT8 (11758183_x_at) / RFU CNN1 (11734310_a_at) / Fold change /veh CNN1 (11734310_a_at) / RFU VPS37D (11726825_at) / Fold change /veh VPS37D (11726825_at) / RFU C10orf10 (11716522_x_at) / Fold change /veh C10orf10 (11716522_x_at) / RFU KIR2DL2 /// KIR2DL4 /// KIR2DL5A /// KIR2DL5B /// KIR2DS1 /// KIR2DS2 /// KIR2DS3 /// KIR2DS4 /// KIR3DL3 /// KIR3DL3 /// KIR3DS1 (11738374_at) / Fold change /veh KIR2DL2 /// KIR2DL4 /// KIR2DL5A /// KIR2DL5B /// KIR2DS1 /// KIR2DS2 /// KIR2DS3 /// KIR2DS4 /// KIR3DL3 /// KIR3DL3 /// KIR3DS1 (11738374_at) / RFU C1QL1 (11718748_at) / Fold change /veh C1QL1 (11718748_at) / RFU TMPRSS4 (11747572_a_at) / Fold change /veh TMPRSS4 (11747572_a_at) / RFU HAMP (11756126_x_at) / Fold change /veh HAMP (11756126_x_at) / RFU RNFT2 (11725882_a_at) / Fold change /veh RNFT2 (11725882_a_at) / RFU NR4A2 (11747474_a_at) / Fold change /veh NR4A2 (11747474_a_at) / RFU ABCC12 (11746883_a_at) / Fold change /veh ABCC12 (11746883_a_at) / RFU TMEM136 (11760407_x_at) / Fold change /veh TMEM136 (11760407_x_at) / RFU CLDN22 /// WWC2 (11732394_at) / Fold change /veh CLDN22 /// WWC2 (11732394_at) / RFU HLA-DPB1 (11760878_x_at) / Fold change /veh HLA-DPB1 (11760878_x_at) / RFU SPINT1 (11716480_a_at) / Fold change /veh SPINT1 (11716480_a_at) / RFU GAP43 (11754022_s_at) / Fold change /veh GAP43 (11754022_s_at) / RFU A4GNT (11735810_at) / Fold change /veh A4GNT (11735810_at) / RFU PRB3 (11715151_x_at) / Fold change /veh PRB3 (11715151_x_at) / RFU TUBB4B (11761932_at) / Fold change /veh TUBB4B (11761932_at) / RFU CAPN14 (11732068_a_at) / Fold change /veh CAPN14 (11732068_a_at) / RFU TMCC2 (11721928_a_at) / Fold change /veh TMCC2 (11721928_a_at) / RFU IRGQ (11745062_a_at) / Fold change /veh IRGQ (11745062_a_at) / RFU FAM174B (11720279_a_at) / Fold change /veh FAM174B (11720279_a_at) / RFU TMPRSS4 (11748680_a_at) / Fold change /veh TMPRSS4 (11748680_a_at) / RFU FAM212B (11763350_a_at) / Fold change /veh FAM212B (11763350_a_at) / RFU PLEKHG5 (11743358_a_at) / Fold change /veh PLEKHG5 (11743358_a_at) / RFU ZSCAN30 (11745921_a_at) / Fold change /veh ZSCAN30 (11745921_a_at) / RFU CMKLR1 (11741424_a_at) / Fold change /veh CMKLR1 (11741424_a_at) / RFU LOC101060620 /// MAPK8IP1 (11723275_at) / Fold change /veh LOC101060620 /// MAPK8IP1 (11723275_at) / RFU SPTSSB (11747773_x_at) / Fold change /veh SPTSSB (11747773_x_at) / RFU PRSS12 (11739890_at) / Fold change /veh PRSS12 (11739890_at) / RFU BIN1 (11741810_x_at) / Fold change /veh BIN1 (11741810_x_at) / RFU WNT11 (11732464_a_at) / Fold change /veh WNT11 (11732464_a_at) / RFU C10orf10 (11716521_a_at) / Fold change /veh C10orf10 (11716521_a_at) / RFU C5orf56 (11738089_at) / Fold change /veh C5orf56 (11738089_at) / RFU CYB561 (11721691_x_at) / Fold change /veh CYB561 (11721691_x_at) / RFU ANKRD19P (11752326_a_at) / Fold change /veh ANKRD19P (11752326_a_at) / RFU OR2T12 /// OR2T33 /// OR2T8 (11738714_s_at) / Fold change /veh OR2T12 /// OR2T33 /// OR2T8 (11738714_s_at) / RFU VCAN (11748164_a_at) / Fold change /veh VCAN (11748164_a_at) / RFU JSRP1 (11732532_at) / Fold change /veh JSRP1 (11732532_at) / RFU KRTAP10-11 (11738290_x_at) / Fold change /veh KRTAP10-11 (11738290_x_at) / RFU MYO3A (11730013_a_at) / Fold change /veh MYO3A (11730013_a_at) / RFU EBF3 (11725865_a_at) / Fold change /veh EBF3 (11725865_a_at) / RFU CAMK2N1 (11719241_x_at) / Fold change /veh CAMK2N1 (11719241_x_at) / RFU C5orf56 (11738088_a_at) / Fold change /veh C5orf56 (11738088_a_at) / RFU OLFML3 (11715873_a_at) / Fold change /veh OLFML3 (11715873_a_at) / RFU LOC100653217 /// NTM (11731650_a_at) / Fold change /veh LOC100653217 /// NTM (11731650_a_at) / RFU MAPK11 (11762145_a_at) / Fold change /veh MAPK11 (11762145_a_at) / RFU FIZ1 (11724087_x_at) / Fold change /veh FIZ1 (11724087_x_at) / RFU OASL (11726364_x_at) / Fold change /veh OASL (11726364_x_at) / RFU SOX15 (11748057_x_at) / Fold change /veh SOX15 (11748057_x_at) / RFU CD79A (11719716_a_at) / Fold change /veh CD79A (11719716_a_at) / RFU HIST1H1D (11736915_at) / Fold change /veh HIST1H1D (11736915_at) / RFU CASKIN2 (11723855_a_at) / Fold change /veh CASKIN2 (11723855_a_at) / RFU LOC730098 (11760151_x_at) / Fold change /veh LOC730098 (11760151_x_at) / RFU OR4N2 (11742367_at) / Fold change /veh OR4N2 (11742367_at) / RFU PRRT2 (11749266_a_at) / Fold change /veh PRRT2 (11749266_a_at) / RFU SNX32 (11753110_a_at) / Fold change /veh SNX32 (11753110_a_at) / RFU CDHR5 (11726645_a_at) / Fold change /veh CDHR5 (11726645_a_at) / RFU RCAN1 (11760418_a_at) / Fold change /veh RCAN1 (11760418_a_at) / RFU FAM167A (11723789_a_at) / Fold change /veh FAM167A (11723789_a_at) / RFU FAM26E (11764081_at) / Fold change /veh FAM26E (11764081_at) / RFU ISYNA1 (11749810_s_at) / Fold change /veh ISYNA1 (11749810_s_at) / RFU ACY1 (11761880_at) / Fold change /veh ACY1 (11761880_at) / RFU 11764098_at / Fold change /veh 11764098_at / RFU SAMD14 (11745864_x_at) / Fold change /veh SAMD14 (11745864_x_at) / RFU NPB (11741838_a_at) / Fold change /veh NPB (11741838_a_at) / RFU TMPRSS6 (11731388_a_at) / Fold change /veh TMPRSS6 (11731388_a_at) / RFU KRTAP10-2 (11738614_at) / Fold change /veh KRTAP10-2 (11738614_at) / RFU ARHGAP8 /// PRR5-ARHGAP8 (11727945_x_at) / Fold change /veh ARHGAP8 /// PRR5-ARHGAP8 (11727945_x_at) / RFU KRTAP5-7 /// NADSYN1 (11734609_at) / Fold change /veh KRTAP5-7 /// NADSYN1 (11734609_at) / RFU RASL12 (11751679_a_at) / Fold change /veh RASL12 (11751679_a_at) / RFU CDKN2B (11736163_a_at) / Fold change /veh CDKN2B (11736163_a_at) / RFU PRF1 (11729649_at) / Fold change /veh PRF1 (11729649_at) / RFU, ZNF638 /// ZNF638-IT1 / Fold change vs veh, ZNF638 /// ZNF638-IT1 / RFU, PANK3 / Fold change vs veh, PANK3 / RFU, SH3YL1 / Fold change vs veh, SH3YL1 / RFU, ZEB2 / Fold change vs veh, ZEB2 / RFU, NRIP1 / Fold change vs veh, NRIP1 / RFU, PTTG1IP / Fold change vs veh, PTTG1IP / RFU, CAPN2 / Fold change vs veh, CAPN2 / RFU, MED14 / Fold change vs veh, MED14 / RFU, SNORA58 / Fold change vs veh, SNORA58 / RFU, C1orf63 / Fold change vs veh, C1orf63 / RFU, LRRFIP1 / Fold change vs veh, LRRFIP1 / RFU, NDUFAF7 / Fold change vs veh, NDUFAF7 / RFU, SLC12A2 / Fold change vs veh, SLC12A2 / RFU, IBTK / Fold change vs veh, IBTK / RFU, ESF1 / Fold change vs veh, ESF1 / Fold change vs veh, TMEM50B / RFU, TAOK1 / Fold change vs veh, TAOK1 / RFU, ACBD3 / Fold change vs veh, ACBD3 / RFU, TMA16 / Fold change vs veh, TMA16 / RFU, RWDD3 / Fold change vs veh, RWDD3 / RFU, BCAT1 / Fold change vs veh, BCAT1 / RFU, EDEM3 / Fold change vs veh, EDEM3 / RFU, TMEM33 / Fold change vs veh, TMEM33 / RFU, WDR75 / Fold change vs veh, WDR75 / RFU, AHCTF1 / Fold change vs veh, AHCTF1 / RFU, TFRC / Fold change vs veh, TFRC / RFU, ZDHHC17 / Fold change vs veh, ZDHHC17 / RFU, NOM1 / Fold change vs veh, NOM1 / RFU, ARL8B / Fold change vs veh, ARL8B / RFU, ZBTB11 / Fold change vs veh, ZBTB11 / RFU, TAMM41 / Fold change vs veh, TAMM41 / RFU, KIAA1704 /// LOC100996395 / Fold change vs veh, KIAA1704 /// LOC100996395 / RFU, ING1 / Fold change vs veh, ING1 / RFU, TRMT61B / Fold change vs veh, TRMT61B / RFU, FUBP3 / Fold change vs veh, FUBP3 / RFU, TP53 / Fold change vs veh, TP53 / RFU, TNKS2 / Fold change vs veh, TNKS2 / RFU, ZFP14 / Fold change vs veh, ZFP14 / RFU, ACTR2 / Fold change vs veh, ACTR2 / RFU, PPP3R1 / Fold change vs veh, PPP3R1 / RFU, PIK3R1 / Fold change vs veh, PIK3R1 / RFU, HNRNPA1 / Fold change vs veh, HNRNPA1 / RFU, RNF170 / Fold change vs veh, RNF170 / RFU, ZNF28 / Fold change vs veh, ZNF28 / RFU, RNGTT / Fold change vs veh, RNGTT / RFU, OGT / Fold change vs veh, OGT / RFU, BRD1 / Fold change vs veh, BRD1 / RFU, MARS / Fold change vs veh, MARS / RFU, ZNF655 / Fold change vs veh, ZNF655 / RFU, FAHD1 / Fold change vs veh, FAHD1 / RFU, BDP1 / Fold change vs veh, BDP1 / RFU, LRRCC1 / Fold change vs veh, LRRCC1 / RFU, ARID1A / Fold change vs veh, ARID1A / RFU, ZNF146 / Fold change vs veh, ZNF146 / RFU, ZNF330 / Fold change vs veh, ZNF330 / RFU, GPN3 / Fold change vs veh, GPN3 / RFU, C9orf123 / Fold change vs veh, C9orf123 / RFU, N4BP2L2 / Fold change vs veh, N4BP2L2 / RFU, ARFIP1 / Fold change vs veh, ARFIP1 / RFU, FAM179B / Fold change vs veh, FAM179B / RFU, BCL10 / Fold change vs veh, BCL10 / RFU, UHRF1BP1L / Fold change vs veh, UHRF1BP1L / RFU, BET1 / Fold change vs veh, BET1 / RFU, CNOT2 / Fold change vs veh, CNOT2 / RFU, ZNF268 / Fold change vs veh, ZNF268 / Fold change vs veh, ZNF507 / RFU, DGCR2 / Fold change vs veh, DGCR2 / RFU, WDSUB1 / Fold change vs veh, WDSUB1 / Fold change vs veh, HSP90B1 /// MIR3652 / RFU, ADSS / Fold change vs veh, ADSS / RFU, GK / Fold change vs veh, GK / RFU, ZNF148 / Fold change vs veh, ZNF148 / RFU, TAF9 / Fold change vs veh, TAF9 / RFU, SLC1A5 / Fold change vs veh, SLC1A5 / RFU, SLMO2 / Fold change vs veh, SLMO2 / RFU, ABCC4 / Fold change vs veh, ABCC4 / RFU, LOC101060439 /// RAP1B / Fold change vs veh, LOC101060439 /// RAP1B / RFU, RFX7 / Fold change vs veh, RFX7 / RFU, GTPBP10 / Fold change vs veh, GTPBP10 / RFU, CNEP1R1 / Fold change vs veh, CNEP1R1 / RFU, BIVM-ERCC5 /// ERCC5 / Fold change vs veh, BIVM-ERCC5 /// ERCC5 / RFU, ILF3 / Fold change vs veh, ILF3 / RFU 11762660_at / Fold change /veh 11762660_at / RFU VCAN (11757783_s_at) / Fold change /veh VCAN (11757783_s_at) / RFU DDX43 (11728927_at) / Fold change /veh DDX43 (11728927_at) / RFU KRT8 (11758188_x_at) / Fold change /veh KRT8 (11758188_x_at) / RFU NKD1 (11759106_at) / Fold change /veh NKD1 (11759106_at) / RFU SRD5A1 (11742802_a_at) / Fold change /veh SRD5A1 (11742802_a_at) / RFU TPSAB1 /// TPSB2 (11721975_s_at) / Fold change /veh TPSAB1 /// TPSB2 (11721975_s_at) / RFU GSTM3 (11746129_a_at) / Fold change /veh GSTM3 (11746129_a_at) / RFU IL23R (11737362_x_at) / Fold change /veh IL23R (11737362_x_at) / RFU TMEM51 (11727254_a_at) / Fold change /veh TMEM51 (11727254_a_at) / RFU PIWIL2 (11732686_x_at) / Fold change /veh PIWIL2 (11732686_x_at) / RFU ORM1 (11744905_x_at) / Fold change /veh ORM1 (11744905_x_at) / RFU CCDC152 (11743942_at) / Fold change /veh CCDC152 (11743942_at) / RFU ECM1 (11717891_a_at) / Fold change /veh ECM1 (11717891_a_at) / RFU IL23R (11748794_a_at) / Fold change /veh IL23R (11748794_a_at) / RFU TNFAIP8L3 (11732012_x_at) / Fold change /veh TNFAIP8L3 (11732012_x_at) / RFU MBOAT4 (11741988_at) / Fold change /veh MBOAT4 (11741988_at) / RFU 11764193_at / Fold change /veh 11764193_at / RFU TMEM53 (11763286_at) / Fold change /veh TMEM53 (11763286_at) / RFU MAGEB2 (11727129_at) / Fold change /veh MAGEB2 (11727129_at) / RFU TMEM200A (11744735_a_at) / Fold change /veh TMEM200A (11744735_a_at) / RFU CCDC152 (11751479_a_at) / Fold change /veh CCDC152 (11751479_a_at) / RFU FAM211A (11726209_a_at) / Fold change /veh FAM211A (11726209_a_at) / RFU RGS16 (11746705_a_at) / Fold change /veh RGS16 (11746705_a_at) / RFU VCAN (11755009_s_at) / Fold change /veh VCAN (11755009_s_at) / RFU RHOB (11743442_s_at) / Fold change /veh RHOB (11743442_s_at) / RFU RGS16 (11720943_a_at) / Fold change /veh RGS16 (11720943_a_at) / RFU RGS16 (11720944_at) / Fold change /veh RGS16 (11720944_at) / RFU, VPS4B / Fold change vs veh, VPS4B / RFU, CREB1 / Fold change vs veh, CREB1 / RFU, DNAJC13 / Fold change vs veh, DNAJC13 / RFU, GNAQ / Fold change vs veh, GNAQ / RFU, CDK5R1 / Fold change vs veh, CDK5R1 / RFU, ZRANB3 / Fold change vs veh, ZRANB3 / RFU, CUL4A / Fold change vs veh, CUL4A / RFU, CCNY / Fold change vs veh, CCNY / RFU, UFL1 / Fold change vs veh, UFL1 / RFU, COG3 / Fold change vs veh, COG3 / RFU, DIAPH2 / Fold change vs veh, DIAPH2 / RFU, SKA2 / Fold change vs veh, SKA2 / RFU, AFF3 / Fold change vs veh, AFF3 / RFU, LMF1 / Fold change vs veh, LMF1 / RFU, IPO11 / Fold change vs veh, IPO11 / RFU, DFFB / Fold change vs veh, DFFB / RFU, FOXP1 / Fold change vs veh, FOXP1 / RFU, CARD8 / Fold change vs veh, CARD8 / RFU, STRN3 / Fold change vs veh, STRN3 / RFU, ADK / Fold change vs veh, ADK / RFU, RASSF2 / Fold change vs veh, RASSF2 / RFU, WIPF1 / Fold change vs veh, WIPF1 / RFU, LARP1B / Fold change vs veh, LARP1B / RFU, RASA1 / Fold change vs veh, RASA1 / RFU, RB1 / Fold change vs veh, RB1 / RFU, PPFIA1 / Fold change vs veh, PPFIA1 / RFU, MAT2A / Fold change vs veh, MAT2A / RFU, CCT5 / Fold change vs veh, CCT5 / RFU, WDR92 / Fold change vs veh, WDR92 / RFU, CUX1 / Fold change vs veh, CUX1 / RFU, TTC7A / Fold change vs veh, TTC7A / RFU, TMEM135 / Fold change vs veh, TMEM135 / RFU, DEPTOR / Fold change vs veh, DEPTOR / RFU, CPM / Fold change vs veh, CPM / RFU, DNAJB6 / Fold change vs veh, DNAJB6 / RFU, CACNA2D3 / Fold change vs veh, CACNA2D3 / RFU, DTX4 / Fold change vs veh, DTX4 / RFU, TFCP2 / Fold change vs veh, TFCP2 / RFU, GMCL1 /// GMCL1P1 / Fold change vs veh, GMCL1 /// GMCL1P1 / RFU, AEBP2 / Fold change vs veh, AEBP2 / RFU, SNHG1 /// SNORD22 /// SNORD25 /// SNORD26 /// SNORD27 /// SNORD28 /// SNORD29 /// SNORD31 / Fold change vs veh, SNHG1 /// SNORD22 /// SNORD25 /// SNORD26 /// SNORD27 /// SNORD28 /// SNORD29 /// SNORD31 / Fold change (Aza/veh), C12orf56 (ProbeSet 11735607_a_at) / Fold change (ACY-1035/veh), C12orf56 (ProbeSet 11735607_a_at) / Fold change (Aza/veh), FGFR1OP (ProbeSet 11751329_s_at) / Fold change (ACY-1035/veh), FGFR1OP (ProbeSet 11751329_s_at) / Fold change (Aza/veh), VPS36 (ProbeSet 11739960_a_at) / Fold change (ACY-1035/veh), VPS36 (ProbeSet 11739960_a_at) / RFU SYPL1 (11715823_x_at) / Fold change /veh SYPL1 (11715823_x_at) / RFU IGFBP7 (11715501_s_at) / Fold change /veh IGFBP7 (11715501_s_at) / RFU REEP3 (11722064_at) / Fold change /veh REEP3 (11722064_at) / RFU IGLL1 (11728026_x_at) / Fold change /veh IGLL1 (11728026_x_at): dose or concentration left out as unconfirmed
Details: ProbeSet 11748670_a_at; LIST B

Nc1ncn([C@@H]2O[C@H](CO)[C@@H](O)[C@H]2O)c(=O)n1 [azacitidine]
Fold change vs veh, PIK3R1: 1.03
